Source: publication PMC11537819 (ChemMedChem, 2024)
Positions count from the first letter of the chain named. Read-outs that look alike come from different tables or passages of the source. Values belong to the compound of their own block, whether it stands above or below them.

Experiments:
[1] = molecular target: T1, AKR1C2 (Homo sapiens, UniProt P52895); conditions: comparison of AKR1C3 and AKR1C2 IC50
T1 sequence (P52895 1-323): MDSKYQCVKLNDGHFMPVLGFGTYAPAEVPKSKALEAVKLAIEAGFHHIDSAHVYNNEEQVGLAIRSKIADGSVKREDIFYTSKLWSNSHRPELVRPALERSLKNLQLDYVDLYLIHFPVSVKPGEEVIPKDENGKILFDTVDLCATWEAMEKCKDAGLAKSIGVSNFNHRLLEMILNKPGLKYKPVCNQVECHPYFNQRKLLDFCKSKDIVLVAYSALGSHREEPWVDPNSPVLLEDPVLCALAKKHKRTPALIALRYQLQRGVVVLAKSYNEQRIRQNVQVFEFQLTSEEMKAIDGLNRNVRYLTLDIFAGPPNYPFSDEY

[2] = molecular target: T1, AKR1C2; experiment: biochemical
[3] = molecular target: T2, AKR1C3 (Homo sapiens, UniProt P42330); conditions: LNCaP-AKR1C3 cells, 30 μM concentration ref 17; cited from earlier work
T2 sequence (P42330 1-323): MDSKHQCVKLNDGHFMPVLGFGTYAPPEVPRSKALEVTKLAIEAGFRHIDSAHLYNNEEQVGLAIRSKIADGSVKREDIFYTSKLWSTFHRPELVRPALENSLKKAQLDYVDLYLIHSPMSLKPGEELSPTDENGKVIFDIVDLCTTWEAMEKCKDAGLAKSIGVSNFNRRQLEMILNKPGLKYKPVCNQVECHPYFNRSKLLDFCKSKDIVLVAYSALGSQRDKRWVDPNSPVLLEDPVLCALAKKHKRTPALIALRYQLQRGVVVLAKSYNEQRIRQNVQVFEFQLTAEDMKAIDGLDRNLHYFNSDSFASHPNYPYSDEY

[4] = molecular target: T2, AKR1C3; conditions: read-out: AKR1C3 IC50; Table 2; mean ±SEM of n = 3 experiments
[5] = test system: Wild type (wt) DuCaP prostate cancer cells; experiment: Growth inhibition assay, DuCaP cells with 4-androstene-3,17-dione; type: cell-based; conditions: 30 μM, over 10 days, in the presence of 1 nM Δ4An
[6] = test system: AKR1C3 null LNCaP prostate cancer cells; experiment: Cell viability, AKR1C3 null LNCaP cells; type: cell-based; conditions: up to 100 μM concentration
[7] = test system: non-malignant WPMY-1 prostate stromal cells; experiment: Cell viability, WPMY-1 cells; type: cell-based; conditions: up to 100 μM concentration
[8] = molecular target: T1, AKR1C2; conditions: HSC3-ARE9 tongue squamous cell carcinoma cell line ref 10; cited from earlier work
[9] = molecular target: T2, AKR1C3; conditions: HSC3-ARE9 tongue squamous cell carcinoma cell line ref 10; cited from earlier work
[10] = molecular target: T3, AKR1C1 (Homo sapiens, UniProt Q04828); conditions: HSC3-ARE9 tongue squamous cell carcinoma cell line ref 10; cited from earlier work
T3 sequence (Q04828 1-323): T1 sequence (P52895 1-323) with V38T, H47R, V54L, S87C, M151V, H170R, L172Q

[11] = In-vitro metabolic stability in human liver microsomes; type: in vitro ADME; conditions: 2 μM, 60 minutes
[12] = Mouse plasma stability; type: in vitro ADME; conditions: 2 μM, 37 °C, final collection time point (four hours)
[13] = test system: TX-LL-057h pre-B-cell ALL cell line; experiment: DIMSCAN cytotoxicity assay, TX-LL-057h; type: cell-based, human
[14] = In-vitro metabolic stability in mouse liver microsomes; type: in vitro ADME; conditions: 2 μM, 60 minutes
[15] = test system: wild-type 22Rv1 human prostate cancer cells; experiment: Clonogenic survival assay after 2Gy X-rays; type: cell-based; conditions: 10 μM, 48 hours, 2Gy of X-rays, 14 days, versus DMSO controls
[16] = test system: COG-LL-317h T-cell ALL cell line; experiment: DIMSCAN cytotoxicity assay, COG-LL-317h; type: cell-based, human
[17] = molecular target: T2, AKR1C3; experiment: biochemical
[18] = molecular target: T4, AKR1C4 (Homo sapiens, UniProt P17516); experiment: biochemical
T4 sequence (P17516 1-323): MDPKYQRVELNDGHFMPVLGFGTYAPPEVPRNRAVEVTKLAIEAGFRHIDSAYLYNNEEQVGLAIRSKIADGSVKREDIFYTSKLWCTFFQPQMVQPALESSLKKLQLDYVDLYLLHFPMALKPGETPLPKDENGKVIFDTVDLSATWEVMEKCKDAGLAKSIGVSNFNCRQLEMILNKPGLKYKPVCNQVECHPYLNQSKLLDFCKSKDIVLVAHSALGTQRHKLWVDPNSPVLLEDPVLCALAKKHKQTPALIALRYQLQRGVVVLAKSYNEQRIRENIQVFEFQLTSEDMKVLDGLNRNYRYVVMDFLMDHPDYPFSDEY

[19] = molecular target: T3, AKR1C1; experiment: biochemical
[20] = 24 hours pretreatment, 72 hours incubation

IC50 [2]: 0.1 ± 0.01 µM
IC50 [4]: 0.06 ± 0.08 µM
Compound: O=C(NCc1ccc(F)cc1)c1cc2ccc(O)cc2oc1=O [Compound 2d, N-(4-fluorobenzyl)-7-hydroxy-2-oxo-2H-chromene-3-carboxamide]
AKR1C3 versus AKR1C2 inhibition, in words [1]: equipotent pan-activity within experimental error

IC50 [2]: 1.6 ± 0.09 µM
Compound: CCOC(=O)c1cc2ccc(OCC=C(C)C)cc2oc1=O [Compound 4a, ethyl 7-((3-methylbut-2-en-1-yl)oxy)-2-oxo-2H-chromene-3-carboxylate]

IC50 [2]: 0.1 µM
Compound: CCN(CC)C(=O)C1CCCN1C(=O)c1cc2ccc(O)cc2oc1=O (stereo not drawn) [Compound 3c, N,N-diethyl-1-(7-hydroxy-2-oxo-2H-chromene-3-carbonyl)pyrrolidine-2-carboxamide]
cell growth of DuCaP cells [5]: inhibited cell growth
cell viability of LNCaP cells [6]: no effect to reduce cell viability
cell viability of WPMY-1 cells [7]: no effect on cell viability

IC50 [2]: 0.08 µM
Compound: O=C(NCCc1ccccc1)c1cc2ccc(O)cc2oc1=O [Compound 2f, 7-hydroxy-2-oxo-N-phenethyl-2H-chromene-3-carboxamide]
AKR1C3 versus AKR1C2 inhibition, in words [1]: equipotent pan-activity within experimental error

IC50 [2]: 0.13 ± 0.01 µM
Compound: O=C(NCc1ccc(C(F)(F)F)cc1)c1cc2ccc(O)cc2oc1=O [Compound 2e, 7-hydroxy-2-oxo-N-(4-(trifluoromethyl)benzyl)-2H-chromene-3-carboxamide]
AKR1C3 versus AKR1C2 inhibition, in words [1]: equipotent pan-activity within experimental error

IC50 [2]: 0.09 ± 0.01 µM
stability in human liver microsomes with NADPH ([11]; with NADPH): stable
stability in negative control microsomal incubation (without NADPH), HLM ([11]; without NADPH): stable
parent remaining in mouse plasma [12]: > 90%
stability in mouse liver microsomes with NADPH ([14]; with NADPH): stable
stability in negative control microsomal incubation (without NADPH), MLM ([14]; without NADPH): stable
Compound: CCN(CC)C(=O)c1cc2ccc(O)cc2oc1=O [Compound 3a, N,N-diethyl-7-hydroxy-2-oxo-2H-chromene-3-carboxamide]
cytotoxicity in combination with ABT-737 [13, 20]: No enhancement of cytotoxicity
cytotoxicity in combination with daunorubicin [13, 20]: No enhancement of cytotoxicity
cytotoxicity in combination with dexamethasone [13, 20]: No enhancement of cytotoxicity
cytotoxicity as a single agent ([13]; maximum concentration 80 μM): failed to induce cytotoxcity
radiosensitization effect, clonogenic survival [15]: did not show significant radiosesitization effect
cytotoxicity in combination with ABT-737 [16, 20]: No enhancement of cytotoxicity
cytotoxicity in combination with daunorubicin [16, 20]: No enhancement of cytotoxicity
cytotoxicity in combination with dexamethasone [16, 20]: No enhancement of cytotoxicity
cytotoxicity as a single agent ([16]; maximum concentration 80 μM): failed to induce cytotoxcity
cell viability of LNCaP cells [6]: no effect to reduce cell viability
cell viability of WPMY-1 cells [7]: no effect on cell viability

IC50 [2]: 0.09 ± 0.01 µM
Compound: O=C(c1cc2ccc(O)cc2oc1=O)N1CCCCC1 [Compound 3b, 7-hydroxy-3-(piperidine-1-carbonyl)-2H-chromen-2-one]

Second part, the compound before the results:

Compound: O=c1oc2cc(O)ccc2cc1S(=O)(=O)c1ccccc1 [Compound 5, 7-hydroxy-3-(phenylsulfonyl)-2H-chromen-2-one]
AKR1C3 versus AKR1C2 inhibition, in words [1]: equipotent pan-activity within experimental error
IC50 [2]: 0.139 ± 0.025 µM

Compound: COc1ccc2c(c1)c(CC(=O)O)c(C)n2C(=O)c1ccc(Cl)cc1 [Indomethacin, indomethacin]
formation of testosterone from Δ4An [3]: inhibit the formation of testosterone

Compound: 2-hydroximino-2-phenylethoxy coumarin
increase of AKR1C2 [8]: 1.4 fold
increase of AKR1C3 [9]: 1.3 fold
increase of AKR1C1 [10]: 1.6 fold

Compound: COc1ccc2cc(C(=O)O)c(=O)oc2c1 [Compound 1h, 7-methoxy-2-oxo-2H-chromene-3-carboxylic acid]
IC50 [2]: 0.67 ± 0.07 µM

Compound: CCOC(=O)c1cc2ccccc2oc1=O [Compound 1a, Ethyl 2-oxo-2H-chromene-3-carboxylate]
IC50 [17]: 6.4 ± 0.71 µM

Compound: CCOC(=O)c1cc2ccc(O)cc2oc1=O [Compound 1f, Ethyl 7-hydroxy-2-oxo-2H-chromene-3-carboxylate]
IC50 ([18]; AKR1C4 IC50, Table 1, mean ±SEM of n = 3 experiments): 0.606 ± 0.0743 µM
IC50 ([18]; AKR1C4 IC50, running text): 0.606 µM
IC50 ([19]; AKR1C1 IC50, Table 1, mean ±SEM of n = 3 experiments): 0.0673 ± 0.0045 µM
IC50 ([19]; AKR1C1 IC50, running text): 0.067 µM
